Reference: patent US20130189727A1, “Methods And Compositions For Cellular Imaging And Cancer Cell Detection Using Light Harvesting Conjugated Polymer-Biomolecular Conjugates” (NATIONAL UNIVERSITY OF SINGAPORE, priority 2010, published 2013)
Read-outs that look alike come from different tables or passages of the source. Values belong to the compound of their own block, whether it stands above or below them. {NH2} = amino group (5'-NH2) on the aptamer

Experiments:
lysozyme [1] = target: T1, lysozyme (Gallus gallus, UniProt P00698); conditions: in solution; read-out: Kd measured in solution; cited from earlier work
T1 construct: Hen egg white lysozyme, BSA, and human trypsin were ordered from Sigma-Aldrich; purchased Sigma-Aldrich; host or cells: hen egg white

lysozyme [2] = target: T1, lysozyme; assay: Aptamer/lysozyme binding affinity (Kd); design: species or system Hen
Procedure: The LOD is estimated to be 0.36 μg/mL (2.4 pmol, based on 3σ from six independent measurements) using a standard fluorometer, which is more sensitive to aptamer-based electrochemical and fluorescent arrays and is similar to that obtained from a standard of ELISA. (See Vidal, M. L., et al., Agric. Food Chem. 2005, 53, 2379-2385, the entire teachings of which are incorporated herein by reference). However, the strategy of using Apt-NP as a platform for lysozyme detection reduces the bonding affinity (Kd) of the aptamer to its target. […] (See, for example, Cox, J. C.; Ellington, A. D., Bioorg. Med. Chem. 2001, 9, 2525-2531, the entire teachings are incorporated herein by reference). The large Kd on the NP surface is detrimental to assay sensitivity, could be the result of: (1) the steric hindrance induced by the folded aptamer upon binding to lysozyme which prevents the adjacent aptamers from folding into G-quartet structure; (2) the binding of lysozyme on the Apt-NP surface hampers subsequent aptamer/lysozyme binding due to electrostatic repulsion.

[3] = Photostability in stained cells under continuous laser scanning (CLSM); format: physicochemical; conditions: excitation at 405 nm; MCF-7 cells
Procedure: FIG. 2 is time-resolved confocal laser scanning microscopy (CLSM) fluorescence images of SKBR-3 breast cancer cells stained by affibody-attached P2 under laser scanning for (a) 0 min and (b) 15 minutes.
FIG. 8 is confocal image of Hela cells under continuous excitation (λmax=488 nm) after 0 min (A) and 15 min (B) and the fluorescence/transmission overlapped images of the corresponding cells (C, D) taken after incubation with P3-phalloidin for 2 h at 0.5 μM.
I0 is the initial fluorescence intensity of the sample […].
Targeted fluorescence imaging of HER2-positive cancer cells using a P2-affibody conjugate was investigated. […]
To explore the potential of the CPE-g-PEG molecular brush in long-term clinical applications, the photostability and cytotoxicity of P4.1 were investigated. Changes in the CLSM images of P4.1-stained MCF-7 cells under continuous laser scanning were monitored to evaluate the photostability of P4.1 in cells. […] In comparison, most commercial dyes (such as fluorescein, rhodamine and Cy5) usually lose their fluorescence within 3 minutes under CLSM laser illumination. […]
The uptake of HCPEPEI-1/DNA and HCPEPEI-2/DNA polyplexes by COS-7 cells was monitored using confocal lasing scanning microscopy (CLSM). […] The dual modal HCPEPEIs fluorescent gene vectors could facilitate in tracking the delivery of genes due to the intrinsic fluorescence from the HCPE core. […]

T1 sequence (P00698 19-147): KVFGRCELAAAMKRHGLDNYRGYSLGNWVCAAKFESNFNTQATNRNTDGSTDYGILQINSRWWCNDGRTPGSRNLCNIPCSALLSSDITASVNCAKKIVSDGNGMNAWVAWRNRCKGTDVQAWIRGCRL

Compound: 5′-NH2-ATCTACGAATTCATCAGGGCTAAAGAGTGCAGAGTTACTTAG (ATCTACGAATTCATCAGGGCTAAAGAGTGCAGAGTTACTTAG; 5' {NH2}, sugars by position and backbone not given here) [aptamer]
- Kd (lysozyme [1]): 31 nM
- apparent Kd (lysozyme [2]; aptamer on silica NP surface, lysozyme concentration at half-maximum signal): approximately 9 μg/mL
- Kd (lysozyme [2]; aptamer on silica NP surface, lysozyme concentration at half-maximum signal, read-out: apparent Kd): ~625 nM
- Kd on NP surface relative to Kd in solution (lysozyme [2]; larger): 20 fold

Compound: O=C1OC2(c3ccc(O)cc3Oc3cc(O)ccc32)c2ccc(N=C=S)cc21 [FITC]
- decrease of fluorescence intensity after continuous excitation [3]: ~56%

- water solubility: approximately 20 mg/mL
Compound: Poly[9,9-bis(2-(2-(2-methoxyethoxy)ethoxy)ethyl)fluorenevinylene-alt-9,9-bis(4-sulfonatobutyl)fluorenevinylene Sodium Salt] [PFVSO3]
